Where two headings read alike, the source gives them in different places.
Legend:
Parameters in all cases: species or system AML cell lines (8); Primary HTS, single concentration about 10 uM, Cell Titer Glo viability; log10 luminescence, per cent inhibition relative to cycloheximide control
Conditions in all cases: 72 h, inhibitor
CMS = test system: CMS
U937 = test system: U937
ML-2 = test system: ML-2
M07e = test system: M07e
CMK = test system: CMK
CHRF288-11 = test system: CHRF288-11
MV4-11 = test system: MV4-11
MOLM-13 = test system: MOLM-13
[1] = relative to cycloheximide control, log10 luminescence

Compound	CMS %inh (CMS; [1])	U937 %inh (U937; [1])	ML-2 %inh (ML-2; [1])	M07e %inh (M07e; [1])	CMK %inh (CMK; [1])	CHRF288-11 %inh (CHRF288-11; [1])	MV4-11 %inh (MV4-11; [1])	MOLM-13 %inh (MOLM-13; [1])	CMS %inh (CMS; 10 µM)	U937 %inh (U937; 10 µM)	ML-2 %inh (ML-2; 10 µM)	M07e %inh (M07e; 10 µM)	CMK %inh (CMK; 10 µM)	CHRF288-11 %inh (CHRF288-11; 10 µM)	MV4-11 %inh (MV4-11; 10 µM)	MOLM-13 %inh (MOLM-13; 10 µM)
COc1cc(N2CCN(C(C)C)CC2)ccc1Nc1nc(Nc2cccc3ncccc23)c2cc[nH]c2n1 [SJ000573300-1, U24088/12/1]	0.4893%	16.14%	8.95%	3.774%	79.69%	47.23%	11.79%	33.94%	–	–	–	–	–	–	–	–
COc1cc(N2CCN(C(C)C)CC2)ccc1Nc1nc(Nc2ccc(F)cc2C(=O)NC[C@@H](O)CO)c2cc[nH]c2n1 [SJ000573301-1, U23662/84/1]	-0.165%	47.45%	23.23%	18.85%	-2.061%	7.394%	49.16%	61.15%	–	–	–	–	–	–	–	–
COc1cc(N2CCN(C(C)C)CC2)ccc1Nc1nc(Nc2cccc(F)c2C(=O)O)c2cc[nH]c2n1 [SJ000573302-1, U24644/141/1]	-1.742%	-3.308%	1.383%	1.407%	-4.539%	2.245%	-1.676%	-2.196%	–	–	–	–	–	–	–	–
NS(=O)(=O)c1ccc(Nc2ncc(-c3ccccc3)o2)cc1 [SJ000573303-1, U14961/32/1]	–	–	–	–	–	–	–	–	6.689%	6.622%	4.386%	5.73%	30.97%	3.992%	64.71%	74.24%
CN1CCN(CCCNc2nc3ccc(Oc4ccc(NC(=O)Nc5cc(C(F)(F)F)ccc5F)cc4)cc3[nH]2)CC1 [SJ000573304-1, T278/35/2]	2.836%	2.101%	1.341%	5.692%	2.938%	-0.361%	57.09%	79.64%	–	–	–	–	–	–	–	–
COc1cccc(COc2cc(-n3cnc4ccccc43)sc2C(N)=O)c1 [SJ000573305-1, U17845/44/3]	2.005%	5.488%	3.033%	2.73%	1.494%	7.099%	0.1016%	4.701%	–	–	–	–	–	–	–	–
CNC(=O)c1sc(-n2cnc3cc(OC)c(OC)cc32)cc1OCc1ccccc1C(F)(F)F [SJ000573306-1, U22436/130/1]	0.3871%	5.347%	3.023%	-3.893%	19.06%	8.101%	7.836%	15.4%	–	–	–	–	–	–	–	–
COc1cc2ncn(-c3cc(OCc4ccccc4C(F)(F)F)c(C(=O)N(C)C)s3)c2cc1OC [SJ000573307-1, U22436/129/1]	-4.162%	7.074%	-1.707%	-4.272%	4.289%	2.061%	8.508%	15.46%	–	–	–	–	–	–	–	–
COC(=O)c1sc(-n2cnc3cc(OC)c(OC)cc32)cc1OCc1ccccc1C(F)(F)F [SJ000573308-1, U22436/119/1]	4.6%	29.63%	-1.915%	0.7415%	0.3974%	-2.151%	-1.071%	-0.8474%	–	–	–	–	–	–	–	–
O=C1Nc2ccccc2C1=C1CCc2cc(O)ccc21 [SJ000573309-1, C1338/186/2]	4.291%	12.06%	4.662%	0.9027%	25.36%	18.33%	57.39%	102.5%	–	–	–	–	–	–	–	–
Nc1nccc(C#Cc2cncnc2Nc2ccc(OCc3cccc(F)c3)c(Cl)c2)n1 [SJ000573310-1, U16767/158/1]	85.29%	80.64%	58.71%	42.98%	11.36%	34.34%	82.16%	9.977%	–	–	–	–	–	–	–	–
COc1cc(Nc2ncc3c(C)nc(-c4cccc(C(F)(F)F)c4)n3n2)cc(OC)c1OC [SJ000573311-1, U19240/54/1]	21.85%	12.36%	7.183%	19.43%	13.06%	12.88%	65.83%	85.98%	–	–	–	–	–	–	–	–
CCn1c(-c2nonc2N)nc2c(C#CC(C)(C)O)nc(OC[C@@H](N)c3ccccc3)cc21 [SJ000573312-1, LS204454-145A1 | LS204454-146A1]	24.21%	37.57%	7.922%	29.99%	11.49%	122.3%	7.841%	19.15%	–	–	–	–	–	–	–	–
CCn1c(-c2nonc2N)nc2c(C#CC(C)(C)O)nc(OC[C@H](N)c3ccccc3)cc21 [SJ000573312-2, LS204454-145A1 | LS204454-146A1]	42.42%	44.96%	28.64%	46.62%	111.5%	83.17%	22.87%	14.91%	–	–	–	–	–	–	–	–
CCn1c(-c2nonc2N)nc2c(C#CC(C)(C)O)nc(OCCNC)cc21 [SJ000573313-1, MS205583-134A1]	10.14%	64.14%	3.569%	22.08%	13.56%	6.621%	55.12%	19.98%	–	–	–	–	–	–	–	–
CCn1c(-c2nonc2N)nc2c(C#CC(C)(C)O)nc(CN3CCCC3)cc21 [SJ000573314-1, MR206418-021A1]	3.945%	4.345%	-0.4194%	-3.096%	2.979%	4.422%	2.964%	-1.58%	–	–	–	–	–	–	–	–
NS(=O)(=O)c1ccc(Nc2cc(-c3ccc(O)c(F)c3)n[nH]2)cc1 [SJ000573315-1, T350/112/30]	-2.048%	0.1443%	0.5816%	-0.4073%	-1.653%	-4.039%	53.96%	77.64%	–	–	–	–	–	–	–	–
